Data reported in ChEMBL document CHEMBL4602605, “Fluoroquinolones structural and medicinal developments (2013-2018): Where are we now?” (Bioorg Med Chem, 2019).
In brackets after ≈: the same amount, converted by molar mass.

Experiments:
Staphylococcus aureus [1] = assay: Antimicrobial activity against methicillin-susceptible Staphylococcus aureus ATCC 29213 incubated for 16 hrs by CLSI method; type: functional; settings: ATCC 29213, 16 h
Staphylococcus aureus [2] = assay: Antimicrobial activity against healthcare-acquired methicillin-resistant Staphylococcus aureus NRS70 incubated for 16 hrs by CLSI method; type: functional; settings: NRS70, 16 h
[3] = test system: Mycobacterium tuberculosis; assay: Antimicrobial activity against Mycobacterium tuberculosis H37Rv incubated for 10 days by microbroth dilution method; type: functional; settings: 240 h
Staphylococcus aureus [4] = assay: Antimicrobial activity against methicillin-resistant Staphylococcus aureus ATCC 25923 by microdilution method; type: functional
Staphylococcus aureus [5] = assay: Antimicrobial activity against Staphylococcus aureus ATCC 29213 by microdilution method; type: functional
Escherichia coli [6] = assay: Antimicrobial activity against multidrug resistance Escherichia coli ATCC 35218 by microdilution method; type: functional
Escherichia coli [7] = assay: Antimicrobial activity against Escherichia coli ATCC […] by microdilution method; type: functional
Staphylococcus aureus [8] = assay: Antimicrobial activity against Staphylococcus aureus ATCC 25923 incubated for 18 to 24 hrs by microbroth dilution method; type: functional
Bacillus cereus = assay: Antimicrobial activity against Bacillus cereus 709 Roma incubated for 18 to 24 hrs by microbroth dilution method; type: functional
Pseudomonas aeruginosa [9] = assay: Antimicrobial activity against Pseudomonas aeruginosa ATCC 43288 incubated for 18 to 24 hrs by microbroth dilution method; type: functional
[10] = test system: Mycolicibacterium smegmatis; assay: Antimicrobial activity against Mycobacterium smegmatis ATCC 607 incubated for 48 to 72 hrs by microbroth dilution method; type: functional
Enterococcus faecalis = assay: Antimicrobial activity against Enterococcus faecalis ATCC 29212 incubated for 18 to 24 hrs by microbroth dilution method; type: functional
Candida albicans = assay: Antifungal activity against Candida albicans after overnight incubation by agar well diffusion method; type: functional
Aspergillus clavatus = assay: Antifungal activity against Aspergillus clavatus after overnight incubation by agar well diffusion method; type: functional
PC-3 = assay: Growth inhibition of human PC3 cells by MTT assay; type: functional, cell-based
Staphylococcus aureus [11] = assay: Antimicrobial activity against Staphylococcus aureus ATCC 6538 by agar dilution method; type: functional
Pseudomonas aeruginosa [12] = assay: Antimicrobial activity against Pseudomonas aeruginosa ATCC 9027 by agar well diffusion method; type: functional
Escherichia coli [13] = assay: Antimicrobial activity against Escherichia coli ATCC 8739 by agar dilution method; type: functional
Helicobacter pylori [14] = assay: Antimicrobial activity against Helicobacter pylori clinical isolate 2 after 7 days by two-fold agar dilution method; type: functional; settings: clinical isolate 2, 168 h
Helicobacter pylori [15] = assay: Antimicrobial activity against Helicobacter pylori clinical isolate 1 after 7 days by two-fold agar dilution method; type: functional; settings: clinical isolate 1, 168 h
Escherichia coli [16] = assay: Antimicrobial activity against Escherichia coli ATCC 25922 incubated for 18 to 24 hrs by disk diffusion method; type: functional
Staphylococcus aureus [17] = assay: Antimicrobial activity against Staphylococcus aureus ATCC 25923 incubated for 18 to 24 hrs by disk diffusion method; type: functional
Pseudomonas aeruginosa [18] = assay: Antimicrobial activity against Pseudomonas aeruginosa ATCC 27853 incubated for 18 to 24 hrs by disk diffusion method; type: functional
Bacillus subtilis = assay: Antimicrobial activity against Bacillus subtilis 10B incubated for 18 to 24 hrs by disk diffusion method; type: functional

COc1c(N2CCOCC2)c(F)cc2c(=O)c(C(=O)Nc3nccs3)cn(C3CC3)c12
MIC90 (Staphylococcus aureus [1]): > 201 µg/mL
MIC90 (Staphylococcus aureus [2]): > 201 µg/mL

C[C@H]1COc2c(-c3cc4cc(Br)ccc4oc3=O)c(F)cc3c(=O)c(C(=O)O)cn1c23
MIC [3]: 12.5 µg/mL (≈ 25.7 µM)

COc1c(N2CCCCC2)c(F)cc2c(=O)c(C(=O)Nc3nccs3)cn(C3CC3)c12
MIC90 (Staphylococcus aureus [1]): > 201 µg/mL
MIC90 (Staphylococcus aureus [2]): > 201 µg/mL

O=C(O)c1cn(C2CC2)c2c(cc(F)c3nn(CN(N4CCOCC4)N4CCOCC4)c(=O)n32)c1=O
MIC (Staphylococcus aureus [4]): ≤ 2 µg/mL
MIC (Staphylococcus aureus [5]): ≤ 0.25 µg/mL
MIC (Escherichia coli [6]): ≤ 2 µg/mL
MIC (Escherichia coli [7]): ≤ 0.25 µg/mL

CCN(CC)N(Cn1nc2c(F)cc3c(=O)c(C(=O)O)cn(C4CC4)c3n2c1=O)N(CC)CC
MIC (Staphylococcus aureus [4]): ≤ 32 µg/mL
MIC (Staphylococcus aureus [5]): ≤ 8 µg/mL
MIC (Escherichia coli [6]): ≤ 32 µg/mL
MIC (Escherichia coli [7]): ≤ 16 µg/mL

CCn1cc(C(=O)O)c(=O)c2cc(F)c(N3CCN(Cn4nc(CN5CCN(c6ccc([N+](=O)[O-])cc6)CC5)n(Cc5ccccc5)c4=S)CC3)cc21
MIC (Staphylococcus aureus [8]): 0.12 to 0.24 µg/mL (≈ 0.162 to 0.324 µM)
MIC (Bacillus cereus): 0.12 to 0.48 µg/mL (≈ 0.162 to 0.647 µM)
MIC (Pseudomonas aeruginosa [9]): 0.06 to 0.48 µg/mL (≈ 0.0809 to 0.647 µM)
MIC [10]: 0.244 µg/mL (≈ 0.329 µM)
MIC (Enterococcus faecalis): 0.122 to 0.488 µg/mL (≈ 0.164 to 0.658 µM)

COc1c(N2CCN(C)CC2)c(F)cc2c(=O)c(C(=O)N/N=C\c3cccc(N(C)C)c3)cn(C3CC3)c12
inhibition zone (IZ) (Candida albicans): 8 mm
inhibition zone (IZ) (Aspergillus clavatus): 10 mm

COc1cc(/C=N\NC(=O)c2cn(C3CC3)c3c(OC)c(N4CCN(C)CC4)c(F)cc3c2=O)ccc1O
inhibition zone (IZ) (Candida albicans): 10 mm
inhibition zone (IZ) (Aspergillus clavatus): 12 mm
IC50 (PC-3): 14.8 µg/mL (≈ 28.3 µM)

CN(C)N(Cn1nc2c(F)cc3c(=O)c(C(=O)O)cn(C4CC4)c3n2c1=O)N(C)C
MIC (Staphylococcus aureus [4]): ≤ 8 µg/mL
MIC (Staphylococcus aureus [5]): ≤ 2 µg/mL
MIC (Escherichia coli [6]): ≤ 4 µg/mL
MIC (Escherichia coli [7]): ≤ 1 µg/mL

CCn1cc(C(=O)O)c(=O)c2cc(F)c(N3CCCC(C)C3)c(Cl)c21 (stereo not given)
MIC (Staphylococcus aureus [11]): 2 µg/mL (≈ 5.45 µM)
MIC (Pseudomonas aeruginosa [12]): 128 µg/mL (≈ 349 µM)
MIC (Escherichia coli [13]): 8 µg/mL (≈ 21.8 µM)

O=C(O)c1cn(C2CC2)c2c(cc(F)c3nn(CN(N4CCCC4)N4CCCC4)c(=O)n32)c1=O
MIC (Helicobacter pylori [14]): 0.6 µg/mL (≈ 1.27 µM)
MIC (Helicobacter pylori [15]): 2.5 µg/mL (≈ 5.3 µM)

COc1c(N2CCNCC2)c(F)cc2c(=O)c(C(=O)N3CCSC3)cn(C3CC3)c12
MIC90 (Staphylococcus aureus [1]): 0.39 µg/mL (≈ 0.902 µM)
MIC90 (Staphylococcus aureus [2]): 0.62 µg/mL (≈ 1.43 µM)

Cc1ccc(Nc2c(F)cc3c(=O)c(C(=O)O)cn(C4CC4)c3c2N)cc1
MIC (Helicobacter pylori [14]): 2.5 µg/mL (≈ 6.8 µM)
MIC (Helicobacter pylori [15]): 5 µg/mL (≈ 13.6 µM)

COc1c(N2CCN(C)CC2)c(F)cc2c(=O)c(C(=O)N/N=C\c3ccc(O)cc3)cn(C3CC3)c12
inhibition zone (IZ) (Candida albicans): 9 mm
inhibition zone (IZ) (Aspergillus clavatus): 12 mm
IC50 (PC-3): 14.4 µg/mL (≈ 29.2 µM)

Nc1c(Nc2ccc(Cl)cc2)c(F)cc2c(=O)c(C(=O)O)cn(C3CC3)c12
MIC (Helicobacter pylori [14]): 2.5 µg/mL (≈ 6.45 µM)
MIC (Helicobacter pylori [15]): 5 µg/mL (≈ 12.9 µM)

O=C(O)c1cn(C2CC2)c2c(cc(F)c3c2nnn3-c2ccc(Cl)cc2)c1=O
MIC (Helicobacter pylori [14]): 2.5 µg/mL (≈ 6.27 µM)
MIC (Helicobacter pylori [15]): 5 µg/mL (≈ 12.5 µM)

COc1ccc(Nc2c(F)cc3c(=O)c(C(=O)O)cn(C4CC4)c3c2N)cc1
MIC (Helicobacter pylori [14]): 5 µg/mL (≈ 13 µM)
MIC (Helicobacter pylori [15]): 2.5 µg/mL (≈ 6.52 µM)

COc1c(N2CCCC2)c(F)cc2c(=O)c(C(=O)Nc3nccs3)cn(C3CC3)c12
MIC90 (Staphylococcus aureus [1]): > 201 µg/mL
MIC90 (Staphylococcus aureus [2]): > 201 µg/mL

COc1ccc(OC)c(/C=N\NC(=O)c2cn(C3CC3)c3c(OC)c(N4CCN(C)CC4)c(F)cc3c2=O)c1
inhibition zone (IZ) (Candida albicans): 10 mm
inhibition zone (IZ) (Aspergillus clavatus): 8 mm
IC50 (PC-3): 3 µg/mL (≈ 5.58 µM)

C[C@H]1COc2c(-c3cc4ccccc4oc3=O)c(F)cc3c(=O)c(C(=O)O)cn1c23
MIC [3]: 12.5 µg/mL (≈ 30.7 µM)

CCn1cc(C(=O)O)c(=O)c2cc(F)c(-c3cc4ccccc4oc3=O)cc21
MIC [3]: 12.5 µg/mL (≈ 33 µM)

CC1CNCCN1N(Cn1nc2c(F)cc3c(=O)c(C(=O)O)cn(C4CC4)c3n2c1=O)N1CCNCC1C (stereo not given)
MIC (Staphylococcus aureus [4]): ≤ 1 µg/mL
MIC (Staphylococcus aureus [5]): ≤ 0.5 µg/mL
MIC (Escherichia coli [6]): ≤ 2 µg/mL
MIC (Escherichia coli [7]): ≤ 0.25 µg/mL

CCn1cc(C(=O)O)c(=O)c2cc(F)c(NNc3c[nH]c(=O)[nH]c3=O)c(F)c21
MIC (Escherichia coli [16]): 170 µg/mL (≈ 432 µM)
MIC (Staphylococcus aureus [17]): 195 µg/mL (≈ 496 µM)
MIC (Pseudomonas aeruginosa [18]): > 500 µg/mL
MIC (Bacillus subtilis): > 500 µg/mL

COc1c(N2CCN(C)CC2)c(F)cc2c(=O)c(C(=O)N/N=C\c3ccc([N+](=O)[O-])cc3)cn(C3CC3)c12
inhibition zone (IZ) (Candida albicans): 10 mm
inhibition zone (IZ) (Aspergillus clavatus): 8 mm
IC50 (PC-3): 15 µg/mL (≈ 28.7 µM)

CCn1cc(C(=O)O)c(=O)c2cc(F)c(NNc3ncccn3)c(F)c21
MIC (Escherichia coli [16]): 120 µg/mL (≈ 332 µM)
MIC (Staphylococcus aureus [17]): 150 µg/mL (≈ 415 µM)
MIC (Pseudomonas aeruginosa [18]): > 500 µg/mL
MIC (Bacillus subtilis): > 500 µg/mL

CCn1cc(C(=O)O)c(=O)c2cc(F)c(Nc3n[nH]c(N)n3)cc21
MIC (Escherichia coli [16]): 150 µg/mL (≈ 451 µM)
MIC (Staphylococcus aureus [17]): > 500 µg/mL
MIC (Pseudomonas aeruginosa [18]): > 500 µg/mL
MIC (Bacillus subtilis): > 500 µg/mL

CCn1cc(C(=O)O)c(=O)c2cc(F)c(N3CCN(C(C)=O)CC3)cc21 [4-N-ACETYL-1-PIPERAZINYL-NORFLOXACIN]
MIC (Escherichia coli [16]): 0.012 µg/mL (≈ 0.0332 µM)
MIC (Staphylococcus aureus [17]): 10.7 µg/mL (≈ 29.7 µM)
MIC (Pseudomonas aeruginosa [18]): > 500 µg/mL
MIC (Bacillus subtilis): 0.805 µg/mL (≈ 2.23 µM)
